Laboratory results from paper PMC7281403, “Regulation of Tumor Immunity by Lysophosphatidic Acid” (Cancers, 2020).
Where two headings read alike, the source gives them in different places. Values belong to the compound of their own block, whether it stands above or below them.

Columns and labels:
[1] = system: Jurkat cell line; parameters: method as in PMID 7775587; conditions: cotreatment with PMA compared to PMA alone; cited from earlier work
[2] = target: T1, LPAR2 (Homo sapiens, UniProt Q9HBW0); parameters: method as in PMID 9525886; conditions: Jurkat T cells, LPAR2 plus SRE-driven luciferase reporter; cited from earlier work
[3] = target: T1, LPAR2; parameters: method as in PMID 11160288; conditions: LPA 10^−9–10^−6 M, anti-LPAR2 MAb 30–300 ng/mL; cited from earlier work
[4] = system: lymphocyte; parameters: method as in PMID 11024010, PMID 11160288; conditions: bell shape dose-response curve dropping off above 1 µM; cited from earlier work
[5] = parameters: method as in PMID 15172836; conditions: cited from earlier work
[6] = system: LPAR1; parameters: method as in PMID 9525886; conditions: Jurkat T cells, LPAR1 plus SRE-driven luciferase reporter; cited from earlier work
[7] = system: LPAR1; parameters: method as in PMID 11160288; conditions: cited from earlier work
[8] = system: ATX; parameters: method as in PMID 34788605; conditions: TILs from melanoma patients and peripheral CD8+ T cells; cited from earlier work
[9] = target: T2, LPAR5 (Homo sapiens, UniProt Q9H1C0); assay: Ca2+ mobilization in LPAR5 expressing B103 cells; format: cell-based; parameters: expressed in transfected cells; host or cells: B103 cells
Excerpt: (§1) As an example, inhibition of LPAR5 in distinct cell types, such as CD8^+ T cells could help boost its immunosurveillance activity against cancer and impede metastasis. There is currently no FDA-approved LPA receptor antagonist for cancer therapy. […] We obtained both TC-LPA5-4 and UA-02-085 and tested for LPAR5 antagonism in two independent assays: Ca^2+ mobilization and β-Arrestin recruitment. […] AGP is present in several tissues and biological fluids including tumor ascites, atherosclerotic plaques, aqueous humor of the eye, and in platelet rich plasma. Thus, alkyl-LPA might have multiple actions in the TME as well as the cancer cells. […] We included as a positive control, Amgen35, a compound originally discovered by AMGEN investigators to be a LPAR2 antagonist with an IC50 of 0.8 µM [136]. The AMGEN publication predated the discovery of the LPAR4-6. […] Amgen35 has also been reported to have off-target effects in vivo [136]. […] The other putative LPAR5 antagonist compound, AS2727638, reported by Astellas Pharma in Japan, has only been characterized at LPAR1-3 but not at the other LPAR with high homology of LPAR5 [121].

[10] = target: ATX (Homo sapiens, UniProt Q13822); assay: ATX activity, fluorescent FS-3 substrate assay; format: biochemical; conditions: IC50 ± SD
[11] = target: T2, LPAR5; assay: β-arrestin recruitment in LPAR5 expressing CHO-K1 cells; format: cell-based; parameters: expressed in transfected cells; conditions: LPA-induced β-arrestin recruitment, IC50 ± SD, NE = No effect, listed as TC-LPA5-4
Excerpt: as §1

[12] = system: CD8+ T cells; parameters: method as in PMID 31231367; conditions: cited from earlier work

T2 sequence (Q9H1C0 whole entry, species assumed): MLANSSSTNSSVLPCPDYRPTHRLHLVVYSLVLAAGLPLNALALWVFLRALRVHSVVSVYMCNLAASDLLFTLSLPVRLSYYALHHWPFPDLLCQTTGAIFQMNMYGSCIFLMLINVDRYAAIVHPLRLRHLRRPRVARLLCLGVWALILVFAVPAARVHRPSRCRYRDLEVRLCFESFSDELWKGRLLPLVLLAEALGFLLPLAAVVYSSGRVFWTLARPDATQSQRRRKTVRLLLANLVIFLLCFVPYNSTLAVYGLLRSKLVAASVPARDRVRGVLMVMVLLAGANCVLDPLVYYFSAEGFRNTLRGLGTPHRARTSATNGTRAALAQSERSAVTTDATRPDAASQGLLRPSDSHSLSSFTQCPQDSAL
T1 sequence (Q9HBW0 whole entry, species assumed): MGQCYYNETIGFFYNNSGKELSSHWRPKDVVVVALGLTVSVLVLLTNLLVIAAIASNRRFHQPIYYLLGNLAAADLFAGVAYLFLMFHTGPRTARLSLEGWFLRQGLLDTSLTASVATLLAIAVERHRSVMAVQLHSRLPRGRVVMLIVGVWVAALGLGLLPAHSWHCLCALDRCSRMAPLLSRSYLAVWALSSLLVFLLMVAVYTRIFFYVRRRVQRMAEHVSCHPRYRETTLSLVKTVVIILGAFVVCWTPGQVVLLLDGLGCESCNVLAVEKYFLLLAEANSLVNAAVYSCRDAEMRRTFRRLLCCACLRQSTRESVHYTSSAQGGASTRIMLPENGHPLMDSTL

Compound: lysophosphatidic acid [LPA]
increase in IL-2 secretion [1]: five-fold
LPA-dependent luciferase expression [2]: 20 fold over control
transmigration of LPAR2 Jurkat transfectants [3]: stimulated the transmigration
concentration of maximal efficiency in modulating lymphocyte responses [4]: 10^−10 to 10^−8 M
critical micellar concentration ([5]; acyl group myristoyl): 1.850 mM
critical micellar concentration ([5]; acyl group oleoyl): 0.346 mM
critical micellar concentration ([5]; acyl group palmitoyl): 0.540 mM
critical micellar concentration ([5]; acyl group stearoyl): 0.082 mM
LPA-dependent luciferase expression [6]: 5 fold over control
migratory response in LPAR1 Jurkat transfectants [7]: neither LPA nor the anti-LPAR1 MAb induced a migratory response

Compound: O=C(CCN1CCN(C(=O)OCc2cc(Cl)cc(Cl)c2)CC1)c1ccc2[nH]c(=O)oc2c1 [PF-8380]
effect of conditioned media from ATX-expressing tumor cells on T cell migration in presence of ATX inhibitor [8]: failed to inhibit the migration of T cells

LPAR5 IC50 (Ca^2+ Mobilization) ([9]; LPA-induced Ca2+ mobilization, LPAR5 expressing B103 cells, IC50 ± SD, NE = No effect, listed as TC-LPA5-4): inactive
Inhibition of AGP-induced Ca^2+ mobilization ([9]; agonist alkyl glycerophosphate (AGP), unpublished): failed to inhibit
IC50 [10]: 7.1 ± 0.6 µM
LPAR5 IC50 (β-arrestin) [11]: inactive
Compound: COc1cccc(-n2nc(C(=O)O)cc2-c2ccc(C3CCCCC3)c(Cl)c2)c1 [TC-LPA-5]

Compound: CCCCCCCCCCCCCCCCCCOP(O)(O)=S [OTP, octadecyl thiophosphate]
in vitro tumor cell killing function ([12]; mouse and human CD8+ T cells): decreased in vitro tumor cell killing function
granule exocytosis ([12]; stimulation of CD8+ T cells): impaired granule exocytosis

Compound: C[C@H](NC(=O)CCc1nc2cccnc2n1Cc1ccc(OC(F)(F)F)cc1)c1ccc(Cl)cc1 [IOA-289]
effect of conditioned media from ATX-expressing tumor cells on T cell migration in presence of ATX inhibitor [8]: failed to inhibit the migration of T cells
